What was measured:
[1] = healthy volunteers, cited from earlier work
healthy subjects [2] = assay: Concentration-QTc; assay type: in vivo, human
[3] = Plasma pharmacokinetics, Part A; assay type: in vivo, human; settings: for AUC(0-t) / AUC(0-inf) / Cmax / Tmax / half-life: human, plasma, oral; for AUC(0-t): AUC0–last; for AUC(0-inf): AUC0–∞
patients with PV and ITP = settings: rilzabrutinib 400 mg b.i.d.; cited from earlier work
healthy subjects [4] = assay: Safety assessment; assay type: in vivo, human; settings: Part A
[5] = test system: collagen-induced arthritis in rats; settings: cited from earlier work
[6] = test system: rat antibody-mediated Arthus model; settings: cited from earlier work
[7] = Part B, linear model with an intercept
[8] = 1200 mg, Mean (SD), rilzabrutinib 1200 mg single dose
[9] = 1200 mg, Median (range), rilzabrutinib 1200 mg single dose
[10] = Mean (SD), rilzabrutinib 100 mg + ritonavir 100 mg b.i.d., rilzabrutinib in plasma
[11] = Median (range), rilzabrutinib 100 mg + ritonavir 100 mg b.i.d., rilzabrutinib in plasma
[12] = rilzabrutinib 100 mg + ritonavir 100 mg vs 100 mg alone
[13] = rilzabrutinib 100 mg + ritonavir 100 mg

CC(C)(/C=C(\C#N)C(=O)N1CCC[C@@H](n2nc(-c3ccc(Oc4ccccc4)cc3F)c3c(N)ncnc32)C1)N1CCN(C2COC2)CC1 [Rilzabrutinib, rilzabrutinib]
median time to maximum plasma concentration [Tmax] ([1]; single dose 50–1200 mg): 0.5 to 2.5 h | mean half-life (t 1/2) ([1]; single dose): 1.4 to 3.9 h | concentration–QTc relationship (slope) (healthy subjects [2]; Part B): -0.01 ms/ng/mL | predicted ΔΔQTcF at the observed geometric mean Cmax (healthy subjects [2]; Part B, 400 mg alone): -3.4 ms | estimated population slope of the C-QTc relationship (healthy subjects [2]; [7]): 0.01 ms per ng/mL | intercept of the C-QTc relationship (healthy subjects [2]; [7]): -2.0 ms | predicted ΔΔQTcF at the observed geometric mean Cmax (healthy subjects [2]; Part B, rilzabrutinib 400 mg with ritonavir): -9.9 ms | predicted ΔΔQTcF interval at Cmax (healthy subjects [2]; both therapeutic and supratherapeutic dose groups): < 0 ms | predicted upper bound 90% CI of QTc effect (healthy subjects [2]; therapeutic and supratherapeutic concentrations): < 10 ms | AUC(0-t) [3, 8]: 2.47 µg·h/mL | AUC(0-t) [3, 9]: 0.551 µg·h/mL | AUC(0-inf) [3, 8]: 2.47 µg·h/mL | AUC(0-inf) [3, 9]: 0.553 µg·h/mL | Cmax [3, 8]: 0.569 µg/mL | Cmax [3, 9]: 0.136 µg/mL | Tmax [3, 8]: 2.9 h | Tmax [3, 9]: ~3 h | half-life ([3]; 1200 mg, t 1/2, Mean (SD), rilzabrutinib 1200 mg single dose): 3.1 h | half-life ([3]; 1200 mg, t 1/2, Median (range), rilzabrutinib 1200 mg single dose): 3.2 h | AUC(0-t) [3, 10]: 1.08 µg·h/mL | AUC(0-t) [3, 11]: 0.771 µg·h/mL | AUC(0-inf) [3, 10]: 1.1 µg·h/mL | AUC(0-inf) [3, 11]: 0.778 µg·h/mL | Cmax [3, 10]: 0.223 µg/mL | Cmax [3, 11]: 0.157 µg/mL | Tmax [3, 10]: 2.3 h | Tmax [3, 11]: 2.5 h | half-life ([3]; t 1/2, Mean (SD), rilzabrutinib 100 mg + ritonavir 100 mg b.i.d., rilzabrutinib in plasma): 4 h | half-life ([3]; t 1/2, Median (range), rilzabrutinib 100 mg + ritonavir 100 mg b.i.d., rilzabrutinib in plasma): 4 h | increase in rilzabrutinib AUC0–∞ with ritonavir over rilzabrutinib alone [3, 12]: 17 fold | increase in rilzabrutinib Cmax with ritonavir over rilzabrutinib alone [3, 12]: 7 fold | Tmax, Median (range) ([3]; rilzabrutinib 100 mg single dose): 1.0 (0.5–2.0) h | Tmax, Median (range) ([3]; rilzabrutinib 1200 mg single dose): 3.0 (1.5–4.0) h | prolonged QTcF interval among safety concerns (patients with PV and ITP): did not report prolonged QTcF interval | serious TEAEs, deaths, or TEAEs leading to study drug interruption/discontinuation (healthy subjects [4]): no serious TEAEs, deaths, or TEAEs leading to study drug interruption/discontinuation | severity of rilzabrutinib-related TEAEs (healthy subjects [4]): mostly mild (grade 1) | participants with TEAEs deemed related to rilzabrutinib treatment (healthy subjects [4]; 100 mg plus ritonavir 100 mg, one event in one participant): 9.1% | participants with TEAEs deemed related to rilzabrutinib treatment (GI-related) (healthy subjects [4]; 1200 mg, five events in three participants): 75% | rilzabrutinib-related TEAEs (healthy subjects [4]; following 100 mg rilzabrutinib): no rilzabrutinib‐related TEAEs reported | Treatment-related TEAE: Diarrhea, n (%) (healthy subjects [4]; rilzabrutinib 100 mg): 0 n (%) | Treatment-related TEAE: Dizziness, n (%) (healthy subjects [4]; rilzabrutinib 100 mg): 0 n (%) | Treatment-related TEAE: Gastrointestinal disorders, n (%) (healthy subjects [4]; rilzabrutinib 100 mg): 0 n (%) | Treatment-related TEAE: Nausea, n (%) (healthy subjects [4]; rilzabrutinib 100 mg): 0 n (%) | Treatment-related TEAE: Nervous system disorders, n (%) (healthy subjects [4]; rilzabrutinib 100 mg): 1 (8.3) n (%) | Treatment-related TEAE: Orthostatic hypotension, n (%) (healthy subjects [4]; rilzabrutinib 100 mg): 0 n (%) | Treatment-related TEAE: Subjects with ≥1 TEAE, n (%) (healthy subjects [4]; rilzabrutinib 100 mg): 0 n (%) | Treatment-related TEAE: Vascular disorders, n (%) (healthy subjects [4]; rilzabrutinib 100 mg): 0 n (%) | Treatment-related TEAE: Vomiting, n (%) (healthy subjects [4]; rilzabrutinib 100 mg): 0 n (%) | Treatment-related TEAE: Diarrhea, n (%) (healthy subjects [4]; [13]): 0 n (%) | Treatment-related TEAE: Dizziness, n (%) (healthy subjects [4]; [13]): 1 (9.1) n (%) | Treatment-related TEAE: Gastrointestinal disorders, n (%) (healthy subjects [4]; [13]): 0 n (%) | Treatment-related TEAE: Nausea, n (%) (healthy subjects [4]; [13]): 0 n (%) | Treatment-related TEAE: Orthostatic hypotension, n (%) (healthy subjects [4]; [13]): 0 n (%) | Treatment-related TEAE: Subjects with ≥1 TEAE, n (%) (healthy subjects [4]; [13]): 1 (9.1) n (%) | Treatment-related TEAE: Vascular disorders, n (%) (healthy subjects [4]; [13]): 0 n (%) | Treatment-related TEAE: Vomiting, n (%) (healthy subjects [4]; [13]): 0 n (%) | Treatment-related TEAE: Diarrhea, n (%) (healthy subjects [4]; rilzabrutinib 1200 mg): 2 (50.0) n (%) | Treatment-related TEAE: Dizziness, n (%) (healthy subjects [4]; rilzabrutinib 1200 mg): 1 (25.0) n (%) | Treatment-related TEAE: Gastrointestinal disorders, n (%) (healthy subjects [4]; rilzabrutinib 1200 mg): 3 (75.0) n (%) | Treatment-related TEAE: Nausea, n (%) (healthy subjects [4]; rilzabrutinib 1200 mg): 2 (50.0) n (%) | Treatment-related TEAE: Nervous system disorders, n (%) (healthy subjects [4]; rilzabrutinib 1200 mg): 1 (25.0) n (%) | Treatment-related TEAE: Orthostatic hypotension, n (%) (healthy subjects [4]; rilzabrutinib 1200 mg): 1 (25.0) n (%) | Treatment-related TEAE: Subjects with ≥1 TEAE, n (%) (healthy subjects [4]; rilzabrutinib 1200 mg): 3 (75.0) n (%) | Treatment-related TEAE: Vascular disorders, n (%) (healthy subjects [4]; rilzabrutinib 1200 mg): 1 (25.0) n (%) | Treatment-related TEAE: Vomiting, n (%) (healthy subjects [4]; rilzabrutinib 1200 mg): 1 (25.0) n (%) | tolerability (healthy subjects [4]; single dose of 100 mg): well tolerated | effect on disease [5]: dose‐dependent reduction and complete reversal of disease | anti-inflammatory effects [6]: rapid and significant anti‐inflammatory effects
